Source: PMC3985486 (Biochemistry, 2014)
≈ marks a conversion by molar mass, not a printed value.

Key:
[1] = test system: E. faecalis strain ATCC 29212; assay: Broth microdilution MIC, E. faecalis; type: cell-based, Enterococcus faecalis
[2] = test system: S. aureus strain ATCC 29213; assay: Broth microdilution MIC, S. aureus; type: cell-based, Staphylococcus aureus
[3] = Enterococcus faecalis, ATCC29212, pH 5.8, E. faecalis 29212, pH 5.8
[4] = Enterococcus faecalis, ATCC29212, pH 7, E. faecalis 29212, pH 7
[5] = Staphylococcus aureus, ATCC29213
[6] = Staphylococcus aureus, ATCC29213, pH 5.8
[7] = Staphylococcus aureus, ATCC29213, pH 7

Structure (SMILES): CCC[C@H]1c2ccccc2C=NN1C(=O)/C=C/c1cc(Cc2cnc(N)nc2N)cc(OC)c1OC (racemic) [RAB, (S,E)-3-{5-[(2,4-diaminopyrimidin-5-yl)methyl]-2,3-dimethoxyphenyl}-1-[1-propylphthalazin-2(1H)-yl]-2-propen-1-one]
- MIC [1, 3]: 0.125 to 0.25 µg/mL (≈ 0.257 to 0.514 µM)
- MIC [1, 4]: 0.06 µg/mL (≈ 0.123 µM)
- MIC [2, 5]: 0.06 µg/mL (≈ 0.123 µM)
- MIC [2, 6]: 0.25 µg/mL (≈ 0.514 µM)
- MIC [2, 7]: 0.03 to 0.06 µg/mL (≈ 0.0617 to 0.123 µM)

Structure (SMILES): COc1cc(Cc2cnc(N)nc2N)cc(OC)c1OC [TMP, trimethoprim]
- increase in MIC in acidic environment ([1]; E. faecalis, acidic pH vs pH 7): 2–3 fold
- shift (increase) in MIC with exogenous folinic acid ([1]; E. faecalis, folinic acid in media vs none): up to 1 fold
- MIC [1, 3]: 1 µg/mL (≈ 3.44 µM)
- MIC [1, 4]: 0.125 to 0.25 µg/mL (≈ 0.431 to 0.861 µM)
- increase in MIC in acidic environment ([2]; S. aureus, acidic pH vs pH 7): 2–3 fold
- MIC [2, 5]: 2 to 4 µg/mL (≈ 6.89 to 13.8 µM)
- MIC [2, 6]: 8 µg/mL (≈ 27.6 µM)
- MIC [2, 7]: 2 µg/mL (≈ 6.89 µM)

Structure (SMILES): CN[C@H](CC(C)C)C(=O)N[C@H]1C(=O)N[C@@H](CC(N)=O)C(=O)N[C@H]2C(=O)N[C@H]3C(=O)N[C@H](C(=O)N[C@H](C(=O)O)c4cc(O)cc(O)c4-c4cc3ccc4O)[C@H](O)c3ccc(c(Cl)c3)Oc3cc2cc(c3O[C@@H]2O[C@H](CO)[C@@H](O)[C@H](O)[C@H]2O[C@H]2C[C@](C)(N)[C@H](O)[C@H](C)O2)Oc2ccc(cc2Cl)[C@H]1O [VAN]
- MIC ([1]; E. faecalis 29212, folinic acid 0.1 μg/mL added): 2 to 4 µg/mL
- MIC ([1]; E. faecalis 29212, pH 5.8): 1 to 2 µg/mL
- MIC ([1]; E. faecalis 29212, pH 7): 1 to 2 µg/mL
- MIC ([2]; S. aureus 29213, folinic acid 0.1 μg/mL added): 1 µg/mL (≈ 0.69 µM)
- MIC ([2]; S. aureus 29213, pH 5.8): 1 µg/mL (≈ 0.69 µM)
- MIC ([2]; S. aureus 29213, pH 7): 1 µg/mL (≈ 0.69 µM)
